Source: US11219664B2, “Composition for diagnosing, preventing, or treating vascular smooth muscle cell proliferative diseases using FGF12” (CHUNG-ANG UNIVERSITY INDUSTRY ACADEMIC COOPERATION …, priority 2015, dated 2022)

Assays:
[1] = system: human aortic smooth muscle cells (HASMCs); assay: FGF12 expression regulation by PDGF-BB in HASMCs (RT-PCR, immunofluorescence); format: cell-based
From the text: (§1) Tissue sections and cells were stained with primary antibody against Ki67 (Dako Inc.), FGF12 (Abcam), phospho-p53 (p-p53; Cell Signaling Technology), α-smooth muscle actin (α-SMA; Sigma), or SM22α (Abcam) and proper fluorescence-labeled secondary antibody. Nuclei were stained with 4′,6-diamidino-2-phenylindole (DAPI). The stained cells were observed using a fluorescence microscope (Nikon). All images shown are representative of independent three experiments.
(§2) Total RNA of cells or tissues for reverse transcription-polymerase chain reaction (RT-PCR) was isolated with TRIzol reagent (Invitrogen). Next, cDNA was synthesized from total RNA using primers specific to corresponding genes and a Superscript first-strand synthesis kit (Invitrogen), and was amplified by PCR (30-35 cycles). Glyceraldehyde-3-phosphate dehydrogenase (GAPDH) was used as a loading control. Real-time PCR was performed using a SYBR-Green PCR master mix (Applied biosystems) and the StepOnePlus™ Real Time PCR System (Applied Biosystems). Data were analyzed according to ΔΔCt method, and gene expression values were normalized to GAPDH expression.
(§3) Human aortic vascular smooth muscle cells (HASMCs; ScienCell Research Laboratories) and human pulmonary […] vascular smooth muscle cell (HPASMC, ScienCell Research laboratories) were cultured in smooth muscle growth medium (SMGM, ScienCell Research Laboratories) or basal medium. For a compound inhibitor experiment, HASMCs and HPASMCs were pre-treated with pifithrin (10 μM; Sigma), LY294002 (20 μM; Cell Signaling Technology), PD98059 (50 μM; Cell Signaling Technology), U0 126 (10 μM; Cell Signaling Technology), SB203580 (50 μM; Cell Signaling Technology), and BIRB796 (10 μM; Merck) at 37° C. for 24 hours.

FGF12 promoter = assay: Luciferase reporter assay with FGF12 promoter; format: cell-based, human; details: HASMCs, pGL3-FGF12 reporter, PDGF-BB 50 ng/ml versus removed
Protocol: For the luciferase reporter assay, approximately 2000 base pairs of the FGF12 5′-UTR were cloned into a firefly luciferase reporter vector (pGL3-phFGF12). HASMCs were co-transfected with an empty vector (pGL3-basic) or pGL3-phFGF12, together with a constitutively active β-galactosidase reporter plasmid as a transfection control. After 48 hours, luciferase and galactosidase activities were analyzed using a luciferase and galactosidase assay kit (Stratagene). The luciferase activity was normalized to galactosidase activity, and expressed as a relative value compared with the luciferase activity measured in HASMCs transfected with pGL3-basic and cultured in a medium containing PDGF-BB (50 ng/ml) for 1 day.

[2] = system: human pulmonary aortic vascular smooth muscle cells (HPASMCs); assay: FGF12 expression regulation by PDGF-BB in HPASMCs (RT-PCR, immunofluorescence); format: cell-based
From the text: as §1, §2, §3

HPASMCs = assay: Cell proliferation by Ki67 staining in HPASMCs; format: cell-based, human; details: pifithrin 10 μM
From the text: as §1
(§4) For cell proliferation analysis, cells were inoculated triplicate in a 24-well plate, and cultured in the basal medium supplemented with 50 ng/ml platelet-derived growth factor-BB (PDGF-BB; R&D systems), 100 ng/ml Bone morphogenic protein-4 (BMP-4; R&D systems), or 10% FBS. Cell proliferation was determined by an MTS assay (MTS assay; Promega) or immunofluorescence assay using anti-Ki67 IgG (Dako). Five representative color images were randomly acquired from each sample for quantifying Ki67 stained cells (Ki67+ cells), and the percentage of Ki67+ cells was determined through dividing the mean value of Ki67+ cells by the total number of cells on each image.

HASMCs = assay: Cell proliferation by Ki67 staining in HASMCs; format: cell-based, human; details: pifithrin 10 μM
From the text: as §1, §4

HPASMC = assay: FGF12 expression regulation by BMP in HPASMC (RT-PCR, Western blotting); format: cell-based, human; details: for FGF12 protein expression / protein expression of vascular smooth muscle cell differentiation markers (α-SMA, SM22α): 30 ng/ml, 48 hours, western blotting; for level of FGF12 mRNA: 48 hours after addition to basal medium (10 and 30 ng/ml), RT-PCR
Protocol: as §2
For transfection for FGF12 overexpression, an expression vector (pCMV6-Entry having the c-terminal labeled Myc-DDK) encoding a rat homologous gene (Origene) having 100% amino acid homology with human FGF12 cDNA was used. HASMCs and HPASMCs were transfected with pCMV6-FGF12(pFGF12) or pCMV6-Entry (pEntry) control vector using Lipofectamien™ 2000 according to the protocol of the manufacturer, and selected using G418 (Sigma) for 2 weeks. For the inhibition of FGF12, p53 or BMPR2 expression, subconfluent HASMCs were transfected with specific or non-specific small interfering RNA (siRNA; GE Healthcare) using Lipofectamien™ 2000.
Cell and tissue lysates were separated by SDS-PAGE, and protein bands were transferred on blots. Blots were reacted with appropriate primary antibodies such as FGF12 (Abcam), p-p53 (Cell Signaling Technology), p53 (BD Biosciences), α-SMA (Sigma), SM22α (Abcam), SM-MHC, or β-actin (Santa Cruz biotechnology), followed by treatment with horseradish peroxidase-conjugated secondary antibodies.

[3] = 3 hours after PDGF-BB (50 ng/ml) added to basal medium, RT-PCR
[4] = after 24 hours of PDGF-BB stimulation

## PDGF-BB: platelet-derived growth factor subunit B homodimer, vascular smooth muscle cell mitogen
[1]; [3]
  mRNA level of FGF12: greatly decreased
[1]; PDGF-BB 50 ng/ml, one day
  expression level of FGF12 (immunofluorescent experiment): decreased
[1]; [4]
  mRNA level of FGF12: further decreased
  mRNA level of the contractible gene SM-HMC: decreased
  mRNA level of the proliferation marker gene CDK1: increased
FGF12 promoter
  transcriptional activity of the FGF12 promoter: inhibits the expression of FGF12 at a transcriptional level
[2]; [3]
  mRNA level of FGF12: greatly decreased
[2]; PDGF-BB 50 ng/ml, one day
  expression level of FGF12 (immunofluorescent experiment): decreased
[2]; [4]
  mRNA level of FGF12: further decreased
  mRNA level of the contractible gene SM-HMC: decreased

## pifithrin
HPASMCs
  cell proliferation of Ad-FGF12-transfected cells: significantly improving the cell proliferation
HASMCs
  cell proliferation of Ad-FGF12-transfected cells: significantly improving the cell proliferation

B1: BMP-4: Bone morphogenic protein-4 (protein)
chain: SPKHHSQRARKKNKNCRRHSLYVDFSDVGWNDWIVAPPGYQAFYCHGDCPFPLADHLNSTNHAIVQTLVNSVNSSIPKACCVPTELSAISMLYLDEYDKVVLKNYQEMVVEGCGCR
HPASMC
  FGF12 protein expression: increased
  protein expression of vascular smooth muscle cell differentiation markers (α-SMA, SM22α): increased
  level of FGF12 mRNA: significantly increased

B2: BMP-7: bone morphogenetic protein, promotes differentiation and inhibits proliferation of vascular smooth muscle cells (protein, UniProt P18075 293-431, looked up)
Bone morphogenetic protein 7: STGSKQRSQNRSKTPKNQEALRMANVAENSSSDQRQACKKHELYVSFRDLGWQDWIIAPEGYAAYYCEGECAFPLNSYMNATNHAIVQTLVHFINPETVPKPCCAPTQLNAISVLYFDDSSNVILKKYRNMVVRACGCH
HPASMC
  FGF12 protein expression: increased
  protein expression of vascular smooth muscle cell differentiation markers (α-SMA, SM22α): increased
  level of FGF12 mRNA: significantly increased
